From paper PMC3411462, “Long-acting κ opioid antagonists nor-BNI, GNTI and JDTic: pharmacokinetics in mice and lipophilicity” (BMC Pharmacology, 2012)
Read-outs that look alike come from different tables or passages of the source.

Key:
[1] = Brain and plasma concentrations in mice after intraperitoneal administration (LC-MS-MS), non-compartmental analysis; assay type: in vivo; details: for k el: read-out: Lambda_z (converted)
Experimental: Doses are reported by weight of the specified salt. […] Body mass was measured to ±0.1 g.
Mice were sacrificed by cervical dislocation, then decapitated for collection of brain and blood samples. Trunk blood was collected in 1.5 mL polypropylene micro-centrifuge tubes, shaken with a few crystals of EDTA and cooled in ice-water. Samples were centrifuged at 14,000 rpm (revolutions per minute) for 15 minutes at 3 °C, then stored in glass sample vials at −20 °C until analysis. Brains were removed and immersed for 30 seconds in 2-methylbutane over dry ice, then stored in polypropylene tubes at −20 °C until sample preparation. Sample tubes were thawed in ice-water, distilled water was added (2:1 by weight) and the brain homogenized with a probe sonicator for 3 minutes over ice-water (Fisher Sonic Dismembrator 300 at 35% power). The probe was rinsed with ethanol and distilled water between samples. Brain homogenate was stored in glass sample vials at −20 °C until analysis by LC-MS-MS.
(§1) Drug concentrations (ng mL^-1) refer to the free base, and were measured by liquid chromatography-tandem mass spectrometry (LC-MS-MS) as described previously. Briefly, samples were shaken with 3 volumes of methanol and centrifuged at 3000 g. Aliquots of the supernatants were diluted with 5 volumes of water containing an appropriate internal standard. Extracts from in vitro and in vivo experiments were analyzed by multiple reaction monitoring on an API3000 or API4000 LC-MS-MS system with electrospray ion source, controlled and analyzed using the Analyst software package (Applied Biosystems, Foster City, CA). Chromatography was conducted on a Sprite Armor C18 analytical column (20 × 2.1 mm, 10 μm particle size, Analytical Sales and Products, Pompton Plains, NJ) with a 0.5 μm PEEK guard filter. Compounds were eluted with a gradient from 2% to 95% acetonitrile in water, both containing 0.1% formic acid. Compounds were detected in positive ion mode, tuned to the mass transition with the largest intensity. Analyte concentrations were determined by comparison of analyte:internal standard peak area ratios to those of standards prepared in the appropriate matrices.
For calculation of mean concentrations, the earliest values below the MRC were substituted by MRC ÷ 2, as recommended elswhere. Pharmacokinetic parameters were calculated from mean concentrations using PKSolver, employing non-compartmental analysis for extravascular administration. Curves in figures were fitted using Origin 8.5 (OriginLab, Northampton, MA) using 2-compartment models. Confidence intervals and two-tailed p values (unpaired t test) were calculated using Graphpad Quickcalcs. One outlier was identified using Grubbs' test (p < 0.01) and excluded from the analysis; see Additional file 1.

[2] = Octanol-buffer distribution (log D7.4); assay type: physicochemical; details: 1-octanol/PBS
Experimental: Phosphate-buffered saline (PBS, pH 7.4) and 1-octanol were mutually saturated by vigorous stirring at room temperature for 18 h, and then separated. Drug solutions of 0.1 mg mL^-1 in PBS were prepared, and 500 μL aliquots were added to 1.5 mL micro-centrifuge tubes with an equal volume of 1-octanol. Three samples were vortex-mixed for 1, 10 and 30 minutes respectively, then centrifuged at room temperature (12,000 rpm for 15 minutes). Aliquots of the upper octanol layer were removed by pipette. A disposable syringe was inserted while bubbling air through the upper layer, an aliquot of the lower PBS layer withdrawn, and the needle removed before transferring. Samples were stored in glass sample vials at −20 °C until analysis by LC-MS-MS.
as §1

[3] = Plasma binding (unbound fraction by ultracentrifugation); assay type: in vitro ADME; details: 5 μM drug, mean, n = 3
Experimental: Unbound fractions in brain homogenate and plasma were determined by ultracentrifugation as described previously. Briefly, drug-spiked matrices (5 μM drug in plasma or brain homogenate) were centrifuged at 600,000 g for 5 h at 37 °C (plasma) or 5 °C (brain). Aliquots of the middle (water) layer were added to an equal volume of blank matrix and extracted with 5 volumes of acetonitrile containing internal standard. Aliquots of the original spiked matrix were mixed with an equal volume of blank matrix and 2 volumes of plasma ultrafiltrate (plasma) or phosphate-buffered saline (tissue) and extracted with 10 volumes of acetonitrile. Extracts were centrifuged and analyzed by LC-MS-MS. Fraction unbound was calculated from the ratio of concentration in the water layer to that in the original spiked matrix, corrected for dilution as described previously.

[4] = system: mice; assay: Fatalities and behavioral effects after i.p. administration; details: 100 mg kg^-1
Experimental: Experiments were performed between 10 am and 6 pm. Mice were not used in other experiments, or exposed to other drugs, before testing began.
Doses are reported by weight of the specified salt. Intraperitoneal injections were administered in distilled water vehicle (10 mL kg^-1). Body mass was measured to ±0.1 g. Some values were inadvertently measured on a low-precision balance (± 2.5 g); these timepoints were replicated at ±0.1 g.

[5] = male, Swiss-Webster, mouse, ip, brain NCA, 10 mg/kg i.p.
[6] = male, Swiss-Webster, mouse, ip, plasma NCA, 10 mg/kg i.p.
[7] = male, Swiss-Webster, mouse, plasma, intraperitoneal, 10 mg/kg, 10 mg/kg, read-out: Conc (plasma, NCA input)
[8] = male, Swiss-Webster, mouse, plasma, ip, 10 mg/kg, 10 mg/kg i.p., read-out: mean (plasma)
[9] = male, Swiss-Webster, mouse, plasma, ip, 10 mg/kg, 10 mg/kg i.p., individual mice, read-out: [drug],plasma (free base equivalent)

## CC(C)[C@@H](CN1CC[C@@](C)(c2cccc(O)c2)[C@@H](C)C1)NC(=O)[C@H]1Cc2ccc(O)cc2CN1 [JDTic, (3R)-7-Hydroxy-N-((1S)-1-{[(3R,4R)-4-(3-hydroxyphenyl)-3,4-dimethyl-1-piperidinyl]methyl}-2-methylpropyl)-1,2,3,4-tetrahydro-3-isoquinolinecarboxamide]
[1]; male, Swiss-Webster, mouse, brain, ip, 10 mg/kg, brain, 10 mg kg^-1 i.p., non-compartmental analysis, read-out: AUC 0–∞,brain
  AUC(0-inf): 10300 ng·h/mL
[1]; male, Swiss-Webster, mouse, in vivo, ip, ·2HCl salts, 10 mg kg^-1 i.p., mice
  Tmax: 30 min
[1]; [5]
  AUC(0-t): 4400 ng·h/mL
  Tmax: 30 min
  k el: 8.75e-07 s⁻¹
[1]; male, Swiss-Webster, mouse, ip, brain NCA, 10 mg/kg i.p., read-out: Cmax
  Cmax: 71.1 ng/mL
[1]; [6]
  AUC(0-t): 866 ng·h/mL
  Tmax: 30 min
  k el: 3.75e-05 s⁻¹
[1]; male, Swiss-Webster, mouse, ip, plasma NCA, 10 mg/kg i.p., read-out: MRT 0-inf_obs
  MRT inf: 258 min
[1]; male, Swiss-Webster, mouse, ip, plasma, 10 mg kg^-1 i.p., mice, read-out: C max,p
  Cmax: 245 ng/mL
[1]; [7]
  concentration at 0.5 h: 245 ng/mL
  concentration at 1 h: 154 ng/mL
  concentration at 2 h: 56.9 ng/mL
  concentration at 4 h: 46.6 ng/mL
  concentration at 24 h: 3 ng/mL
[1]; [8]
  concentration at 0.5 h: 245 ng/mL
  concentration at 1 h: 154 ng/mL
  concentration at 2 h: 57 ng/mL
  concentration at 4 h: 47 ng/mL
[1]; [9]
  concentration at 2 h: 42.3 ng/mL
  concentration at 24 h: 5 ng/mL
[1]; male, Swiss-Webster, mouse, plasma, ip, 10 mg/kg, 10 mg/kg i.p., <MRC substituted by MRC/2, read-out: mean (plasma)
  concentration at 24 h: 3 ng/mL
[1]; male, Swiss-Webster, mouse, plasma, ip, 10 mg/kg, plasma NCA, 10 mg/kg i.p., read-out: AUC 0-inf_obs
  AUC(0-inf): 888 ng·h/mL
[1]; male, Swiss-Webster, mouse, plasma, ip, 10 mg/kg, plasma NCA, 10 mg/kg i.p., read-out: Cl/F_obs (converted)
  CL/F: 188 mL/min/kg
[1]; male, Swiss-Webster, mouse, plasma, ip, 10 mg/kg, plasma NCA, 10 mg/kg i.p., read-out: Vz/F_obs
  Vd/F: 83.3 L/kg
[1]; male, Swiss-Webster, mouse, plasma, ip, 10 mg/kg, plasma NCA, 10 mg/kg i.p., read-out: t1/2 (converted)
  half-life: 308 min
[1]; male, Swiss-Webster, mouse, plasma, ip, 10 mg/kg, plasma, 10 mg kg^-1 i.p., non-compartmental analysis, read-out: AUC 0–∞,p
  AUC(0-inf): 888 ng·h/mL
[1]; male, Swiss-Webster, mouse, plasma, ip, 10 mg/kg, plasma, 10 mg kg^-1 i.p., non-compartmental analysis, read-out: CL/F (converted)
  CL/F: 18.3 mL/min/kg
[1]; male, Swiss-Webster, mouse, plasma, ip, 10 mg/kg, plasma, 10 mg kg^-1 i.p., non-compartmental analysis, read-out: V z /F
  Vd/F: 83 L/kg
[1]; over 24 hours, 10 mg kg^-1 i.p.
  Decline of mean brain level: 56%
[1]; plasma NCA, 10 mg/kg i.p.
  AUMC 0-inf_obs: 3814.94 ng/ml*h^2
  Tlag: 0 h
[1]; same dose, 10 mg kg^-1 i.p.
  Maximal plasma concentration relative to those after nor-BNI and GNTI: less than 10%
[1]; unbound brain, 10 mg kg^-1 i.p., in vivo brain binding assumed at least 3-fold greater than homogenate
  C max,brain,u: < 4 nM
[1]; within 1 hour, 10 mg kg^-1 i.p.
  Decline of mean plasma concentration from peak: 37%
[1]; within 2 hours, 10 mg kg^-1 i.p.
  Decline of mean plasma concentration from peak: 77%
[1]; within 4 hours, 10 mg kg^-1 i.p.
  Decline of mean plasma concentration from peak: at least 80%
[2]; pH 7.4, pooled mixing times 1, 10, 30 min
  logD: 1.84
[2]; mixing time 1 min, octanol/PBS pH 7.4
  logD at 1 min: 1.84
[2]; mixing time 10 min, octanol/PBS pH 7.4
  logD at 10 min: 1.9
[2]; mixing time 30 min, octanol/PBS pH 7.4
  logD at 30 min: 1.77
[3]
  fraction unbound at 5 h, 5 μM: 0.19
[4]
  Behavioral effects observed: Only mild behavioral effects, such as hiccup-like spasms and shivering
  Fatalities: no fatalities
